Experimental data from patent US8481678B2, “Peptide-based tooth whitening reagents” (E I du Pont de Nemours and Company, priority 2009, dated 2013).
Where no end group is shown, it is not given here. The star is where a group is joined. Biotin = O=C1N[C@H]2[C@H](CS[C@H]2CCCCC(=O)*)N1

B1: Engineered Peptide: recombinant triblock reagent: two tooth-binding peptides (SEQ 108), spacers, two cellulose acetate-binding peptides (SEQ 118), His-tag; applied with cellulose acetate-coated TiO2 (protein)
chain: PHMASMTGGQQMGSYSETPNDQKPNPHYKVSGTKGPEEAAKKEEAAKKPAYSETPNDQKPNPHYKVSGTKGSGGGGSGSGGGGSVRPNLHRKAKAKPDHKQSENRKVPFYSHGSSGGGGVRPNLHRKAKAKPDHKQSENRKVPFYSHGSSGGGHHHHHH
modifications: applied with cellulose acetate-coated TiO2; Synthetic peptide-based tooth whitening reagent

System: not listed separately
Assay: Phage ELISA, tooth enamel-binding assay (unpolished enamel blocks)
Set-up: species or system bovine
Conditions: phage ELISA on unpolished enamel, over 10^10 pfu phage; no-phage control 0.193
Description: A total of 11 selected phage candidates (Example 3) were used in a phage ELISA experiment. Purified phage lysates were used for binding to the enamel blocks using an anti-M13 phage antibody conjugated to horseradish-peroxidase, followed by the addition of chromogenic agent TMB, obtained from Pierce Biotechnology (Rockford, Ill.). The plates were read at A450 nm.
For each phage candidate to be tested, the polished and unpolished enamel blocks were incubated for 1 h at room temperature with 200 μL of blocking buffer, consisting of 2% non-fat dry milk (Schleicher & Schuell, Inc.) in TBS. […] The tube was rinsed 6 times with wash buffer consisting of TBST-0.05%. The wells were filled with 200 μL of TBST-0.5% containing 1 mg/mL BSA and then 10 μL (over 10^10 pfu) of purified phage stock was added. The samples were incubated at room temperature for 60 min with slow shaking. The non-binding phage was removed by washing 6 times with TBST-0.5%. […] The conjugate solution was removed and was washed 6 times with TBST-0.5%. […] “BoEn P” means bovine polished enamel and BoEn means bovine enamel.

| Molecule | O.D. at 450 nm |
| --- | --- |
| NTCATSPNSYTCSN (Tooth-binding peptide) [BoEn 6] | 2.38 |
| AANPHTEWDRDAFQLAMPPK (Tooth-binding peptide) [BoEn 1] | 1.402 |
| LNDQRKPGPPTMPTHSPAVG (Tooth-binding peptide) [BoEn 5] | 0.944 |
| VGTMKQHPTTTQPPRVSATN (Tooth-binding peptide) [BoEn 9] | 0.568 |
| SDCTAGLVPPLCAT (Tooth-binding peptide) [BoEn 7] | 0.892 |
| YSETPNDQKPNPHYKVSGTK (Tooth-binding peptide) [BoEn 10] | 3.942 |

System: pellicle-coated enamel substrates
Assay: not given
Conditions: 20 μM synthetic biotinylated peptide, 30 min at 37° C.; normalized to DenP03; three replicates; no peptide −0.001
Description: A total of 20 synthetic peptides were manufactured using sequences obtained from Table 14. Peptides were obtained from Synbiosci (Livermore, Calif.) and included an additional SSRP sequence (SEQ ID NO: 151) at the N-terminus and biotin labeled lysine at the C-terminus.
Enamel substrates were cut to approx. 7 mm squares and mounted on wax mounting for incubation in the mouth for 30 min to form a pellicle coated surface. The pellicle-coated enamel substrates were removed from the wax backing and placed in well plates with the pellicle surface exposed as in Example 1. Each pellicle-coated substrate was incubated for 1 h at room temperature (˜22° C.) with 1 mL of blocking buffer, consisting of 1 mg/mL BSA in PBST (Pierce BupH™ #28372 with 0.1% TWEEN® 20). The blocking buffer was removed by aspirating the liquid out of each well. The tube was rinsed 2 times with wash buffer consisting of PBST. The wells were filled with 500 μL of 20 μM peptide solution which was prepared by diluting in blocking buffer. The samples were incubated for 30 min with slow shaking at 37° C. The non-binding peptide was removed by washing 6 times with PBST. Then, 500 μL of horseradish peroxidase/streptavidin conjugate (Pierce #22127), diluted 1:2000 in PBST, was added and incubated for 1 h at room temperature. The conjugate solution was removed and was washed 4 times with PBST.
Each enamel substrate was removed from the well and washed again in a 15-mL test tube with 10 mL of PBST. Each enamel substrate was then mounted in a clean well plate with only the enamel surface exposed. A 1:1 solution of TMB substrate and H2O2 (200 μL), obtained from Pierce Biotechnology (Rockford, Ill.) was added to each well and the color was allowed to develop for between 10 to 20 min, typically for 15 min, at room temperature (˜22° C.). Then, 100 μL of solution from each well was transferred to a 96-well reading plate containing stop solution (100 μL of 2 M H2SO4) in each well. The A450 was measured using a microplate spectrophotometer (Molecular Devices, Sunnyvale, Calif.). […] Each sequence was tested with three replicate enamel coated pellicle substrates.

| Molecule | O.D. at 450 nm (normalized) |
| --- | --- |
| SSRPELDHDSRHYMNGLQRKVTK(Biotin) [DenP15-A] | 0.460 |
| SSRPVEPATKNMREARSSTQMRRIK(Biotin) [DenP4-A] | 0.803 |
| SSRPAPPTYQTASYPHNLPSKRKMK(Biotin) [DenP28-A] | 0.811 |
| SSRPTYQGVPSWPAVIDDAIRRK(Biotin) [DenP19-A] | 0.712 |
| SSRPYLLPKDQTTAPQVTPIVQHKK(Biotin) [DenP5-A] | 0.462 |
| SSRPGPQHVLMQDTHQGYAFDNK(Biotin) [DenP16-A] | 0.309 |
| SSRPFDGIGLGTATRHQNRK(Biotin) [DenP12-A] | 0.475 |
| SSRPTTGSSSQADTSASMSIVPAHK(Biotin) [DenP17-A] | 0.143 |

System: not listed separately
Assay: Whitening of tea-stained bovine enamel with peptide reagent and cellulose acetate-coated TiO2 (CIELAB colour)
Set-up: key to L* / a* / b*: CIELAB coordinates: L* lightness, a*/b* chromaticity (D65 illuminant); key to ΔE: ΔE = ((ΔL*)²+(Δa*)²+(Δb*)²)^½ vs tea-stained baseline
Conditions: 5 μM peptide 30 min + 0.25% CA-TiO2 30 min, versus tea-stained baseline; buffer control 3.25
Description: The peptide-based reagent comprising multiple tooth-binding peptides, spacers, and cellulose acetate-binding peptide sequences was prepared as described in Example 8.
The cellulose acetate-coated titanium dioxide was prepared as described in Example 10. The peptide-based reagent described in Example 8 (SEQ ID NO:116) was used. The peptide-based reagent was diluted with 25 mM Tris-HCl buffer including 150 mM NaCl at pH 7.5 to give a final concentration of 5 μM. The cellulose acetate-coated titanium dioxide dispersion described in Example 10 was further diluted from 20% solids to 0.25% solids in 25 mM Tris-HCl buffer at pH 7.5.
Bovine Teeth (SE Dental, Baton Rouge, La.) were used as model substrate to test with the engineered peptide-based reagent designed to bind to tooth enamel (SEQ ID NO:116). The teeth were prepared by cleaning in detergent and then disinfecting in 70% Ethanol prior to use. Each clean tooth was measured for color using an X-RITE® SP64 Spectrometer to collect a reflectance spectrum and CIELAB color coordinates, L*, a* and b*. A staining solution was made with 100 mL of boiling water exposed to 1 Lipton tea bag for 5 minutes. After the solution cooled to room temperature, each tooth was allowed to incubate in the staining solution for approximately 3 days. The teeth were removed and rinsed with water and dried. Color measurement was obtained for each tooth.
The stained bovine enamel substrates were exposed to either the 5 μM solution of peptide or as a control, the buffer used to make the peptide solution. This exposure was for 30 minutes with gentle agitation in a vortex mixer. Following peptide binding, the teeth were removed and rinsed in buffer and placed in a 0.25% solution of cellulose acetate coated titanium dioxide for 30 minutes. The teeth were removed, rinsed in buffer, blotted dry and measured for color using the X-RITE® spectrometer. The teeth were placed back in the same pigment solutions for an additional 2.5 hr and removed, rinsed and measured again.
The color intensity at each step mentioned above (e.g., to determine the change in tooth whitening) was measured using a X-RITE® SP64™ Sphere Spectrophotometer (X-Rite, Inc., Grandville, Mich.), by placing the front of the bovine tooth (treated or control) sample into a sample holder and calculating L*, a* and b* parameters representing the photometer response using a standard D65 illuminant. An initial baseline values of L*, a* and b* were measured prior to peptide treatment for the tea-stained bovine samples. All measurements are the average of three individual determinations. Delta E values are calculated using equation 1 below: Delta E=((L*1−L*2)^2+(a1−a2)^2+(b1−b2)^2)^1/2 (1) where L*=the lightness variable and a* and b* are the chromaticity coordinates of CIELAB colorspace as defined by the International Commission of Illumination (CIE) (Minolta, Precise Color Communication—Color Control From Feeling to Instrumentation, Minolta Camera Co., 1996). Larger Delta E value is indicative of an increase in whiteness. In one embodiment, a larger Delta E for the treatment group (peptide-based reagent+polymer coated white colorant) versus the Delta E of the peptide-free control is used to determine the relative increase in whiteness.

| Molecule | ΔE |
| --- | --- |
| B1 | 6.68 |

Same assay, conditions: 5 μM peptide 30 min + 0.25% CA-TiO2 30 min; tea-stained baseline 3.96396

| Molecule | a* |
| --- | --- |
| B1 | 1.635 |

Same assay, conditions: 5 μM peptide 30 min + 0.25% CA-TiO2 30 min; tea-stained baseline 22.7952

| Molecule | b* |
| --- | --- |
| B1 | 18.0418 |

Same assay, conditions: 5 μM peptide 30 min + 0.25% CA-TiO2 30 min; tea-stained baseline 67.0271

| Molecule | L* |
| --- | --- |
| B1 | 71.1068 |

Same assay, conditions: after additional 2.5 hr in CA-TiO2

| Molecule | L* | a* | b* |
| --- | --- | --- | --- |
| B1 | 73.9558 | 1.496 | 18.0851 |

Same assay, conditions: after additional 2.5 hr in CA-TiO2, versus tea-stained baseline; buffer control 3.80

| Molecule | ΔE |
| --- | --- |
| B1 | 8.73 |

System: pellicle coated bovine enamel
Assay: Phage ELISA on pellicle-coated bovine enamel (30 min in vivo pellicle), Example 13
Type: binding, human
Conditions: 10^11 pfu, 30 min at 37° C., normalized to an internal control
Description: A total of 29 selected phage candidates from Table 14 were used in phage ELISA Experiment to determine binding affinity and coverage of each phage on pellicle substrates. Purified phage lysates were used for binding to pellicle coated bovine enamel using an anti-M13 phage antibody conjugated to horseradish-peroxidase, followed by the addition of chromogenic agent TMB, obtained from Pierce Biotechnology (Rockford, Ill.). The plates were read at A450nm.
The wells were filled with 1 mL of 10^11 pfu purified phage stock which was prepared by diluting in blocking buffer. […] The non-binding phage was removed by washing 5 times with PBST. […] The conjugate solution was removed and was washed 3 times with PBST.

| Molecule | O.D. at 450 nm (normalized) |
| --- | --- |
| TTYHYKNIYQESYQQRNPAV (Synthetic oral-surface binding peptide) [DenP 03] | 2.495 |

System: pellicle-coated bovine enamel
Assay: Phage ELISA on pellicle-coated bovine enamel, candidates from brushed 8 hr pellicle, Example 17
Type: binding, human
Conditions: phage ELISA screened with 30 min in vivo pellicle; normalized to DenP3; no-phage control 0.094
Description: A total of 18 selected phage candidates were used in a phage ELISA Experiment. Purified phage lysates were used for binding to pellicle-coated bovine enamel using an anti-M13 phage antibody conjugated to horseradish-peroxidase, followed by the addition of chromogenic agent TMB, obtained from Pierce Biotechnology (Rockford, Ill.). The plates were read at A450nm.
The wells were rinsed 2 times with wash buffer consisting of PBST. The wells were filled with 1 mL of […] purified phage stock which was prepared by diluting in blocking buffer. […] The non-binding phage was removed by washing 5 times with PBST. Then, 500 μL of horseradish peroxidase/anti-M13 antibody conjugate (Amersham USA, Piscataway, N.J.), diluted 1:500 in the blocking buffer, was added and incubated for 45 min at room temperature. The conjugate solution was removed and was washed 5 times with PBST.

| Molecule | O.D. at 450 nm (normalized) |
| --- | --- |
| EFYPFAEVPPEKSGIGRQVF [DenP102] | 0.520 |
| WHEPHQFSGENTDYSSSMGT [DenP109] | 0.716 |
| GGMGALESYRQWNHLA [DenP113] | 1.348 |
| THGNKHQSWTYPSEINHKNY [DenP108] | 1.149 |
| NQQMKLVPQHWHRAQP [DenP119] | 1.051 |
| SFSWHRGDWELGHQSKTMGM [DenP106] | 1.524 |
| DGYKLQTSLDWQMWNP [DenP111] | 1.051 |
| GYGQYVSQQTWAHSNK [DenP115] | 0.501 |
| AIEYQHSATTPWTMRTRLPP [DenP101] | 0.467 |
| HDHLSWWGQFDRQNLL [DenP116] | 1.055 |
| QFNQTSHSFMHGTSGYVPGK [DenP105] | 0.470 |
| GINKGQRPPWESWHEN [DenP114] | 0.703 |
| NLHSPWPSHAAHHWST [DenP118] | 0.641 |
| TTYHYKNIYQESYQQRNPAV (Synthetic oral-surface binding peptide) [DenP 03] | 1.000 |
| FPSKWYNHHRHITGHV [DenP112] | 0.413 |
| MPGHQESIKVQNWNRV [DenP117] | 0.433 |
| GYQPHYVDHTIGWQPMIRPN [DenP104] | 0.790 |
| SMWHDITKRYRNPSEMVSAY [DenP107] | 0.726 |
| GVHQYSRPTVPSYLWTSGQH [DenP103] | 0.879 |
